# Data as given in patent US8455475B2 (Gruenenthal GmbH, priority 2009, dated 2013).
# Target: T1, rat B1R (bradykinin receptor 1) (Rattus norvegicus, UniProt P97583)
# T1 construct: expressed in transfected cells; host or cells: CHO K1 cells
# T1 sequence (P97583 1-337): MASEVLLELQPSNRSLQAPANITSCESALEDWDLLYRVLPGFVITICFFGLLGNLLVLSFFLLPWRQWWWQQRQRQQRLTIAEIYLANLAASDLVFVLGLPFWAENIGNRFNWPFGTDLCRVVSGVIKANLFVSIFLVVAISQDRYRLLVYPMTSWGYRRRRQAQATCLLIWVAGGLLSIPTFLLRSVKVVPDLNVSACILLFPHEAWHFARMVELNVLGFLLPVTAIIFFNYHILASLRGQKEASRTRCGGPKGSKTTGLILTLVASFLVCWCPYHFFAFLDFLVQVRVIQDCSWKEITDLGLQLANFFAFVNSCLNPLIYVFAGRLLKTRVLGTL
# Test: FLIPR Ca2+ assay (Fluo-4) on CHO K1 cells stably transfected with the B1R gene of the rat (rB1R cells): % inhibition at 10 μM / IC50, agonist Des-Arg9-bradykinin
# Assay type: cell-based
# Conditions: CHO-K1, rat B1R
# In short: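 Stably transfected CHO K1 cells loaded with Fluo-4 and read on FLIPR (λex 488, λem 540 nm; peak fluorescence). Test substance (10 μM) added first, then after 10–20 min the agonist at EC80; % inhibition versus maximum achievable inhibition. IC50 from several concentrations, n=2–3, N≥2.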
row,inhibition at 10 µM [%],Compound
1,71,"Cc1cccc(Cl)c1C(=O)NC1CCc2ccc(C(=O)N3CCC4(CCN(Cc5ccc6ncccc6c5)CC4)C3)cc21 (centres unmarked) [IND_CC-764, 2-Chloro-6-methyl-N-[6-[8-(quinolin-6-yl-methyl)-2,8-diazaspiro[4.5]decane-2-carbonyl]-2,3-dihydro-1H-inden-1-yl]-benzamide]"
2,91,"O=C(NC1CCc2ccc(C(=O)N3CCC4(CCN(Cc5csnn5)CC4)CC3)cc21)c1c(F)cccc1Cl (centres unmarked) [IND_CC-797, 2-Chloro-6-fluoro-N-[6-[9-([1,2,3]thiadiazol-4-yl-methyl)-3,9-diazaspiro[5.5]undecane-3-carbonyl]-2,3-dihydro-1H-inden-1-yl]-benzamide]"
3,86,"N#Cc1ccccc1CN1CCC2(CC1)CCN(C(=O)c1ccc3c(c1)C(NC(=O)c1cccc(Cl)c1Cl)CC3)C2 (centres unmarked) [IND_CC-724, 2,3-Dichloro-N-[6-[8-[(2-cyano-phenyl)-methyl]-2,8-diazaspiro[4.5]decane-2-carbonyl]-2,3-dihydro-1H-inden-1-yl]-benzamide]"
4,61,"CN(C(=O)c1ccccc1Cl)C1CCc2ccc(C(=O)N3CCC4(CCN(Cc5ccc6nccnc6c5)CC4)C3)cc21 (centres unmarked) [IND_CC-506, 2-Chloro-N-methyl-N-[6-[8-(quinoxalin-6-yl-methyl)-2,8-diazaspiro[4.5]decane-2-carbonyl]-2,3-dihydro-1H-inden-1-yl]-benzamide]"
5,74,"Cc1cccc(Cl)c1C(=O)NC1CCc2ccc(C(=O)N3CCC4(CCN(Cc5cnc(N(C)C)nc5)CC4)C3)cc21 (centres unmarked) [IND_CC-763, 2-Chloro-N-[6-[8-[(2-dimethylamino-pyrimidin-5-yl)-methyl]-2,8-diazaspiro-[4.5]decane-2-carbonyl]-2,3-dihydro-1H-inden-1-yl]-6-methyl-benzamide]"
6,86,"O=C(c1ccc2c(c1)C(N(C(=O)c1ccccc1Cl)C1CC1)CC2)N1CCC2(CCN(Cc3cccnc3)CC2)C1 (centres unmarked) [IND_CC-518, 2-Chloro-N-cyclopropyl-N-[6-[8-(pyridin-3-yl-methyl)-2,8-diazaspiro[4.5]decane-2-carbonyl]-2,3-dihydro-1H-inden-1-yl]-benzamide]"
7,74,"O=C(NC1CCc2ccc(C(=O)N3CCC4(CCN(Cc5ccncc5)CC4)CC3)cc21)c1cc(C(F)(F)F)ccc1Cl (centres unmarked) [IND_CC-641, 2-Chloro-N-[6-[9-(pyridin-4-yl-methyl)-3,9-diazaspiro[5.5]undecane-3-carbonyl]-2,3-dihydro-1H-inden-1-yl]-5-(trifluoromethyl)-benzamide]"
8,108,"Cc1cccc(Cl)c1C(=O)NC1CCc2ccc(C(=O)N3CCC4(CCN(CCCc5ccc(F)cc5)CC4)C3)cc21 (centres unmarked) [IND_CC-771, 2-Chloro-N-[6-[8-[3-(4-fluorophenyl)-propyl]-2,8-diazaspiro[4.5]decane-2-carbonyl]-2,3-dihydro-1H-inden-1-yl]-6-methyl-benzamide]"
9,66,"Cn1cncc1CN1CCC2(CC1)CCN(C(=O)c1ccc3c(c1)C(NC(=O)c1c(F)cccc1Cl)CC3)CC2 (centres unmarked) [IND_CC-796, 2-Chloro-6-fluoro-N-[6-[9-[(3-methyl-3H-imidazol-4-yl)-methyl]-3,9-diazaspiro[5.5]undecane-3-carbonyl]-2,3-dihydro-1H-inden-1-yl]-benzamide]"
10,96,"O=C(NC1CCc2ccc(C(=O)N3CCC4(CC3)CCN(C(=O)c3ccc(F)cc3Cl)CC4)cc21)c1ccccc1Cl (centres unmarked) [IND_CC-599, 2-Chloro-N-[6-[9-(2-chloro-4-fluoro-benzoyl)-3,9-diazaspiro[5.5]undecane-3-carbonyl]-2,3-dihydro-1H-inden-1-yl]-benzamide]"

# Same assay, conditions: rat B1R, 10 µM
row,% Inhibition (rat B1R) at 10 μM [%],Compound
1,95,"O=C(NC1CCc2ccc(C(=O)N3CCC4(CCN(Cc5ccncc5)CC4)CC3)cc21)c1ccccc1Cl (centres unmarked) [IND_CC-510, 2-Chloro-N-[6-[9-(pyridin-4-yl-methyl)-3,9-diazaspiro[5.5]undecane-3-carbonyl]-2,3-dihydro-1H-inden-1-yl]-benzamide]"
